# According to ChEMBL document CHEMBL5233232, “Repurposed drug candidates for antituberculosis therapy” (Eur J Med Chem, 2020):
# What was measured:
# [1] = system: Mycobacterium tuberculosis; assay: Antitubercular activity against Mycobacterium tuberculosis H37Rv assessed as inhibition of bacterial growth incubated for […] by REMA assay; assay type: functional
# [2] = target: T1, Thioredoxin reductase (Mycobacterium tuberculosis) (UniProt P9WHH1); assay: Inhibition of Mycobacterium tuberculosis Thioredoxin reductase assessed as inhibition
# T1 sequence (whole entry): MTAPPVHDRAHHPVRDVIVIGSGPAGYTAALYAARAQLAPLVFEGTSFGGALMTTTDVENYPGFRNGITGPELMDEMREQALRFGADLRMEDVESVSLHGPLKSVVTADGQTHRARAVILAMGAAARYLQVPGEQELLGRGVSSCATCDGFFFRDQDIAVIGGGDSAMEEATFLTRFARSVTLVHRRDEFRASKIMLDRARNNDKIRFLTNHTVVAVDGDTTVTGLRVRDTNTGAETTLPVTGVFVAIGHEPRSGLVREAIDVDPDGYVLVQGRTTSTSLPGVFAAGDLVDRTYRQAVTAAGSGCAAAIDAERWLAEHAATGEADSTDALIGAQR
# [3] = system: Mycobacterium tuberculosis; assay: Antitubercular activity against Mycobacterium tuberculosis assessed as bacterial growth inhibition by CLSI based broth dilution method; assay type: functional
# [4] = system: Mycobacterium tuberculosis; assay: Antitubercular activity against Mycobacterium tuberculosis H37Rv assessed as inhibition of bacterial growth incubated for 5 days by turbidity-based growth inhibition assay; assay type: functional; conditions: 120 h, time 5 day
# [5] = system: Mycobacterium tuberculosis; assay: Antitubercular activity against Mycobacterium tuberculosis H37Rv assessed as inhibition of bacterial growth incubated for 7 days by REMA assay; assay type: functional; conditions: 168 h, time 7 day
# [6] = system: Mycobacterium tuberculosis; assay: Antitubercular activity against Mycobacterium tuberculosis H37Rv assessed as inhibition of bacterial growth; assay type: functional
# [7] = system: Mycobacterium tuberculosis; assay: Antitubercular activity against Mycobacterium tuberculosis H37Ra assessed as inhibition of bacterial growth incubated for 28 days by microbroth dilution method; assay type: functional; conditions: 672 h, time 28 day
# [8] = system: Mycobacterium tuberculosis; assay: Antitubercular activity against Mycobacterium tuberculosis assessed as bacterial growth inhibition; assay type: functional
# [9] = target: T2, Mycosin-1 (Mycobacterium tuberculosis (strain ATCC 25618 / H37Rv)) (UniProt O05461); assay: Inhibition of Mycobacterium tuberculosis MycP1 assessed as inhibition rate at 150 uM relative to control
# T2 sequence (whole entry): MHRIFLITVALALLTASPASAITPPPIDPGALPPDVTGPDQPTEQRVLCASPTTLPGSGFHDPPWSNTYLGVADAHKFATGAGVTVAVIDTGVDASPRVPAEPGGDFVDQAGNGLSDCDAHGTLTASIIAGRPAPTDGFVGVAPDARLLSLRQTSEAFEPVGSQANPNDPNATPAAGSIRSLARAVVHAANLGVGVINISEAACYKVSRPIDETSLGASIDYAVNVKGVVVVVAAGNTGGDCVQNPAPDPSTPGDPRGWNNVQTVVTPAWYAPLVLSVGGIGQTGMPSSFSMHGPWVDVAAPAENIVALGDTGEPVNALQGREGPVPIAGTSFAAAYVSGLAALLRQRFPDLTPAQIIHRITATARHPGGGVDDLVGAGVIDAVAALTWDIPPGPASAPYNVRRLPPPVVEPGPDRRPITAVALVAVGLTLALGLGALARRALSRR
# [10] = system: Mycobacterium tuberculosis; assay: Antitubercular activity against Mycobacterium tuberculosis H37Rv infected in ip dosed BALB/c mouse assessed as inhibition of bacterial growth; assay type: functional
# [11] = system: Mycobacterium tuberculosis; assay: Antitubercular activity against Mycobacterium tuberculosis H37Rv assessed as inhibition of bacterial growth incubated for 5 days by REMA assay; assay type: functional; conditions: 120 h, time 5 day
# [12] = system: Mycobacterium tuberculosis; assay: Antitubercular activity against Mycobacterium tuberculosis H37Rv assessed as inhibition of bacterial growth incubated for 2 days by resazurin-based assay; assay type: functional; conditions: 48 h, time 2 day
# [13] = system: Mycobacterium tuberculosis; assay: Antitubercular activity against Mycobacterium tuberculosis H37Rv assessed as inhibition of bacterial growth by broth microdilution method; assay type: functional
# [14] = system: Mycobacterium tuberculosis; assay: Antibacterial activity against Mycobacterium tuberculosis H37Rv assessed as fold increase in sensitivity in presence of copper by REMA assay; assay type: functional
# [15] = system: Mycobacterium tuberculosis; assay: Antitubercular activity against Mycobacterium tuberculosis H37Rv assessed as inhibition of bacterial growth incubated for 24 hrs by checkerboard assay; assay type: functional
# [16] = system: Mycobacterium tuberculosis; assay: Antitubercular activity against Mycobacterium tuberculosis H37Rv […] THP-1 cells incubated for 48 hrs by microplate Alamar blue assay; assay type: functional
# [17] = system: Mycobacterium tuberculosis; assay: Antitubercular activity against Mycobacterium tuberculosis H37Rv […] THP-1 cells in presence of rifampin; assay type: functional, organism-based
# [18] = system: Mycobacterium tuberculosis; assay: Antitubercular activity against Mycobacterium tuberculosis H37Rv […] THP-1 cells in presence of isoniazid; assay type: functional, organism-based
# [19] = system: Mycobacterium tuberculosis; assay: Antitubercular activity against Mycobacterium tuberculosis H37Rv […] THP-1 cells in presence of pyrazinamide; assay type: functional, organism-based
# [20] = system: Mycobacterium tuberculosis; assay: Antitubercular activity against Mycobacterium tuberculosis H37Rv assessed as inhibition of bacterial growth by incubated for 7 days by resazurin dye based broth microdilution method; assay type: functional; conditions: 168 h, time 7 day
smiles,measurement,setting,value
CCCCCC/C=C/C=C/CCCCCCCC(=O)O,MIC,[1],200 µg/mL
same,MIC,[2],< 20 µM
CSC1=C(C(=O)[O-])N2C(=O)[C@H]([C@@H](C)O)[C@H]2[C@H]1C.[Na+],MIC90,[3],0.25 µg/mL
CCCOC(=O)CSC1=C(C(=O)O)N2C(=O)[C@H]([C@@H](C)O)[C@H]2[C@H]1C,MIC90,[3],1 µg/mL
O=C(N[C@@H](Cc1ccccn1)C(=O)N[C@@H](CCc1ccccc1)B(O)O)c1cnccn1,MIC50,[4],2.5 µM
CC(C)(C)c1ccc(-c2nn(-c3ccccc3)cc2Cn2ccnc2)cc1,MIC,[5],1.56 µg/mL
CC(C)Cc1ccc(-c2nn(-c3ccccc3)cc2Cn2ccnc2)cc1,MIC,[5],1.56 µg/mL
CC(C)CC(N)C(=O)NCC(=O)NC[C@H](C)B1OC2CC3CC(C3(C)C)[C@@]2(C)O1.Cl (some centres not stated),MIC,[6],≤ 5 µg/mL
CC(C)C[C@H](N)C(=O)NCC(=O)NC[C@H](Cc1ccccc1)B(O)O,MIC,[6],≤ 5 µg/mL
C[C@@H](CNC(=O)CNC(=O)C(N)CC(=O)O)B1OC2CC3CC(C3(C)C)[C@@]2(C)O1.Cl (some centres not stated),MIC,[6],≤ 5 µg/mL
Nc1nc(N)c(-c2ccc(C(=O)Nc3cccc(OC(F)(F)F)c3)cc2)c(OCc2cncs2)n1,MIC,[7],6.25 µg/mL
C[C@@H](O)[C@H]1C(=O)N2C(C(=O)[O-])=C(SCC(=O)OC3CCCCC3)[C@H](C)[C@H]12.[Na+],MIC90,[3],1 µg/mL
C=CCNC(=S)NNC(=S)NCC=C,MIC,[8],0.5 µg/mL
CC(C)C[C@@H](N)C(=O)NCC(=O)NC[C@H](Cc1ccccc1)B(O)O.Cl,MIC,[6],≤ 5 µg/mL
C=C1C[C@@]23CCC4[C@H](C(=O)O)CCC[C@@]4(C)[C@@H]2CC[C@@H]1C3 (some centres not stated),MIC,[2],0.5 µg/mL
CCCCC/C=C\C=C\CCCCCCCCC(=O)O,MIC,[2],< 20 µg/mL
CCCCCC/C=C/C=C\CCCCCCCC(=O)O,MIC,[2],< 20 µg/mL
N=C(N)c1ccc(/N=N/Nc2ccc(C(=N)N)cc2)cc1,inhibition,[9],58%
C[C@@H](O)[C@H]1C(=O)N2C(C(=O)O)=C(S[C@@H]3CN[C@H](CNS(N)(=O)=O)C3)[C@H](C)[C@H]12 (mixture of isomers) [DORIPENEM],MIC90,[3],1 µg/mL
"O[C@@H](c1cc(C(F)(F)F)nc2c(C(F)(F)F)cccc12)[C@H]1CCCCN1 [(S,R)-MEFLOQUINE]",MIC,[5],5 µg/mL
C[C@H]1O[C@H](O[C@H]2[C@H](O)[C@@H](O)[C@@H](O[C@H]3[C@H](O)[C@@H](O)C(O)O[C@@H]3CO)O[C@@H]2CO)[C@H](O)[C@@H](O)[C@@H]1N[C@H]1C=C(CO)[C@@H](O)[C@H](O)[C@H]1O (some centres not stated) [ACARBOSE],MIC,[8],0.05 µg/mL
CCCCC(CC)CNC(=N)NC(=N)NCCCCCCNC(=N)NC(=N)NCC(CC)CCCC.Cl.Cl (configuration not stated) [ALEXIDINE DIHYDROCHLORIDE],MIC99,[10],0.05 µg/mL
C[C@@H]1CC[C@H]2[C@@H](C)C(=O)O[C@@H]3O[C@@]4(C)CC[C@@H]1[C@]32OO4 [ARTEMISININ],MIC,[11],75 µg/mL
COc1nc2ccc(Br)cc2cc1[C@@H](c1ccccc1)[C@@](O)(CCN(C)C)c1cccc2ccccc12 [BEDAQUILINE],MIC,[12],0.06 µg/mL
C[C@@H](O)[C@H]1C(=O)N2C(C(=O)[O-])=C(SC3Cn4cnc[n+]4C3)[C@H](C)[C@H]12 (some centres not stated) [BIAPENEM],MIC90,[13],2.5 µg/mL
CC(C)C[C@H](NC(=O)[C@H](Cc1ccccc1)NC(=O)c1cnccn1)B(O)O [BORTEZOMIB],MIC50,[4],4.3 µM
O=c1c2ccccc2[se]n1-c1ccccc1 [EBSELEN],MIC50,[6],12.5 µg/mL
CN(NC(=O)CC(=O)NN(C)C(=S)c1ccccc1)C(=S)c1ccccc1 [ELESCLOMOL],fold change (FC),[14],>65
same,MIC99,[15],4 µg/mL
NNC(=O)c1ccncc1 [ISONIAZID],MIC,[8],0.01 µg/mL
CC/C=C\C/C=C\C/C=C\CCCCCCCC(=O)O [LINOLENIC ACID],MIC,[8],> 320 µg/mL
same,MIC,[1],200 µg/mL
O=C(Nc1cccc2c(=O)cc(-c3nnn[nH]3)oc12)c1ccc(OCCCCc2ccccc2)cc1 [PRANLUKAST],MIC90,[16],5 µg/mL
CC[C@H](C)C(=O)O[C@H]1C[C@H](O)C=C2C=C[C@H](C)[C@H](CC[C@@H](O)C[C@@H](O)CC(=O)O)[C@H]21 [PRAVASTATIN],EC50,[17],7.8 µM
same,EC50,[18],7.8 µM
same,EC50,[19],7.8 µM
NC(=O)c1cnccn1 [PYRAZINAMIDE],MIC,[8],0.01 µg/mL
COc1ccc2nc3cc(Cl)ccc3c(Nc3cc(CN4CCCC4)c(O)c(CN4CCCC4)c3)c2n1 [PYRONARIDINE],MIC,[20],5 µg/mL
CO[C@H]1/C=C/O[C@@]2(C)Oc3c(C)c(O)c4c(O)c(c(/C=N/N5CCN(C)CC5)c(O)c4c3C2=O)NC(=O)/C(C)=C\C=C\[C@H](C)[C@H](O)[C@@H](C)[C@@H](O)[C@@H](C)[C@H](OC(C)=O)[C@@H]1C [RIFAMPIN],MIC,[8],0.01 µg/mL
CCC(C)(C)C(=O)O[C@H]1C[C@@H](C)C=C2C=C[C@H](C)[C@H](CC[C@@H]3C[C@@H](O)CC(=O)O3)[C@H]21 [SIMVASTATIN],MIC,[6],> 320 µM
C[C@@H](O)[C@H]1C(=O)N2C(C(=O)O)=C(SC3CN(C4=NCCS4)C3)[C@H](C)[C@H]12 [TEBIPENEM],MIC90,[13],1.25 µg/mL
COc1ccc(CCN(C)CCCC(C#N)(c2ccc(OC)c(OC)c2)C(C)C)cc1OC (configuration not stated) [VERAPAMIL],MIC,[6],125 µg/mL
